Experimental data: patent publication US12209087B2, “AKT1 modulators” (Alterome Therapeutics, Inc., priority 2022, dated 2025)

Target: T1, full length AKT E17K (Homo sapiens, UniProt P31749, E17K)
T1 construct: host or cells: HEK-293 (ATCC CRL-1573)
Experiment: NanoBRET Target Engagement (TE) Assay
Type: cell-based
Conditions: competitive displacement of tracer in cells, read-out: AKT1 E17K IC50
In short: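 Compound and tracer incubated 2 h before luminescence at donor 450 nm and acceptor 600 nm, with extracellular signal inhibited. EC50 by sigmoidal variable-slope regression.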

T1 sequence (P31749 whole entry E17K): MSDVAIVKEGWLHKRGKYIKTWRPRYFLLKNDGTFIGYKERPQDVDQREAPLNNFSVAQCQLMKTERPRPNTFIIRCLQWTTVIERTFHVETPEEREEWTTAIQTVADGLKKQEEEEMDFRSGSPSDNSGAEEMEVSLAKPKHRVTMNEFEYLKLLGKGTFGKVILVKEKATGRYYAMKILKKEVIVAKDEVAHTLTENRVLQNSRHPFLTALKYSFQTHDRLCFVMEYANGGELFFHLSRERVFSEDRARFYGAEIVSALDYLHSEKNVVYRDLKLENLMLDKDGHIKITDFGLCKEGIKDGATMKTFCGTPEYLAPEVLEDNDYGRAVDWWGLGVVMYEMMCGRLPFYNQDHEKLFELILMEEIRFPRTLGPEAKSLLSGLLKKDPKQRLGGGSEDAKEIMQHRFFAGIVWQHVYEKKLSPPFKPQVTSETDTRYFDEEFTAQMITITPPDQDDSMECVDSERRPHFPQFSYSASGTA

SMILES | IC50 [nM]
N#Cc1ncnc(N2C[C@H]3CN(Cc4ccc(-n5c(-c6cccnc6N)nc6ccc(-c7ccccc7)nc65)cc4)C[C@H]3C2)n1 [Example 340, 4-((3aR,6aS)-5-(4-(2-(2-Aminopyridin-3-yl)-5-phenyl-3H-imidazo[4,5-b]pyridin-3-yl)benzyl)hexahydropyrrolo[3,4-c]pyrrol-2(1H)-yl)-1,3,5-triazine-2-carbonitrile] | < 15
N#Cc1nccc(N2C[C@H]3CN(Cc4ccc(-n5c(-c6cccnc6N)nc6ccc(-c7ccccc7)nc65)cc4)C[C@@H]3C2)n1 [Example 341, 4-((3aR,6aR)-5-(4-(2-(2-aminopyridin-3-yl)-5-phenyl-3H-imidazo[4,5-b]pyridin-3-yl)benzyl)hexahydropyrrolo[3,4-c]pyrrol-2(1H)-yl)pyrimidine-2-carbonitrile] | < 15
N#Cc1nccc(N2CCN(Cc3ccc(-n4c(-c5cccnc5N)nc5ccc(-c6ccc(Cl)cc6)nc54)cc3)CC2)n1 [Example 342, 4-(4-(4-(2-(2-Aminopyridin-3-yl)-5-(4-chlorophenyl)-3H-imidazo[4,5-b]pyridin-3-yl)benzyl)piperazin-1-yl)pyrimidine-2-carbonitrile] | 15 to 60
N#Cc1ccnc(N2CCN(Cc3ccc(-n4c(-c5cccnc5N)nc5ccc(-c6ccc(Cl)cc6)nc54)cc3)CC2)n1 [Example 343, 2-(4-(4-(2-(2-Aminopyridin-3-yl)-5-(4-chlorophenyl)-3H-imidazo[4,5-b]pyridin-3-yl)benzyl)piperazin-1-yl)pyrimidine-4-carbonitrile] | 60 to 600
N#Cc1cc(N2CCN(Cc3ccc(-n4c(-c5cccnc5N)nc5ccc(-c6ccc(Cl)cc6)nc54)cc3)CC2)ncn1 [Example 344, 6-(4-(4-(2-(2-Aminopyridin-3-yl)-5-(4-chlorophenyl)-3H-imidazo[4,5-b]pyridin-3-yl)benzyl)piperazin-1-yl)pyrimidine-4-carbonitrile] | 60 to 600
CN1CCN(c2ccc3nc(-c4cccnc4N)n(-c4ccc(CN5CCN(c6ccnc(C#N)n6)CC5)cc4)c3n2)CCC1=O [Example 345, 4-(4-(4-(2-(2-Aminopyridin-3-yl)-5-(4-methyl-5-oxo-1,4-diazepan-1-yl)-3H-imidazo[4,5-b]pyridin-3-yl)benzyl)piperazin-1-yl)pyrimidine-2-carbonitrile] | 60 to 600
CN1CCN(c2ccc3nc(-c4cccnc4N)n(-c4ccc(CN5CCC(Nc6ccnc(C#N)n6)CC5)cc4)c3n2)CCC1=O [Example 346, 4-((1-(4-(2-(2-Aminopyridin-3-yl)-5-(4-methyl-5-oxo-1,4-diazepan-1-yl)-3H-imidazo[4,5-b]pyridin-3-yl)benzyl)piperidin-4-yl)amino)pyrimidine-2-carbonitrile] | 60 to 600
N#Cc1ccnc(NC2CCN(Cc3ccc(-n4c(-c5cccnc5N)nc5ccc(N6CCCNC(=O)C6)nc54)cc3)CC2)n1 [Example 347, 2-((1-(4-(2-(2-Aminopyridin-3-yl)-5-(3-oxo-1,4-diazepan-1-yl)-3H-imidazo[4,5-b]pyridin-3-yl)benzyl)piperidin-4-yl)amino)pyrimidine-4-carbonitrile] | 60 to 600
Cn1cc(-c2ccc3nc(-c4cccnc4N)n(-c4ccc(CN5CCN(c6ccnc(C#N)n6)CC5)cc4)c3n2)ccc1=O [Example 348, 4-(4-(4-(2-(2-Aminopyridin-3-yl)-5-(1-methyl-6-oxo-1,6-dihydropyridin-3-yl)-3H-imidazo[4,5-b]pyridin-3-yl)benzyl)piperazin-1-yl)pyrimidine-2-carbonitrile] | 60 to 600
Cn1ccc(-c2ccc3nc(-c4cccnc4N)n(-c4ccc(CN5CCN(c6ccnc(C#N)n6)CC5)cc4)c3n2)cc1=O [Example 349, 4-(4-(4-(2-(2-Aminopyridin-3-yl)-5-(1-methyl-2-oxo-1,2-dihydropyridin-4-yl)-3H-imidazo[4,5-b]pyridin-3-yl)benzyl)piperazin-1-yl)pyrimidine-2-carbonitrile] | 15 to 60
N#Cc1ccnc(N2CCN(Cc3ccc(-n4c(-c5cccnc5N)nc5ccc(C6CC6)nc54)cc3)CC2)n1 [Example 350, 2-(4-(4-(2-(2-Aminopyridin-3-yl)-5-cyclopropyl-3H-imidazo[4,5-b]pyridin-3-yl)benzyl)piperazin-1-yl)pyrimidine-4-carbonitrile] | 15 to 60
N#Cc1ccnc(NC2CCN(Cc3ccc(-n4c(-c5cccnc5N)nc5ccc(C6CC6)nc54)cc3)CC2)n1 [Example 351, 2-((1-(4-(2-(2-Aminopyridin-3-yl)-5-cyclopropyl-3H-imidazo[4,5-b]pyridin-3-yl)benzyl)piperidin-4-yl)amino)pyrimidine-4-carbonitrile] | 15 to 60
N#Cc1ccnc(NC2CCN(Cc3ccc(-n4c(-c5cccnc5N)nc5ccc(-c6ccc(F)cc6)nc54)cc3)CC2)n1 [Example 352, 2-((1-(4-(2-(2-Aminopyridin-3-yl)-5-(4-fluorophenyl)-3H-imidazo[4,5-b]pyridin-3-yl)benzyl)piperidin-4-yl)amino)pyrimidine-4-carbonitrile] | 15 to 60
N#Cc1nccc(NC2CCN(Cc3ccc(-n4c(-c5cccnc5N)nc5ccc(-c6cccc(Cl)c6)nc54)cc3)CC2)n1 [Example 353, 4-((1-(4-(2-(2-Aminopyridin-3-yl)-5-(3-chlorophenyl)-3H-imidazo[4,5-b]pyridin-3-yl)benzyl)piperidin-4-yl)amino)pyrimidine-2-carbonitrile] | 60 to 600
Cn1cc(-c2ccc3nc(-c4cccnc4N)n(-c4ccc(CN5CCN(c6nccc(C#N)n6)CC5)cc4)c3n2)ccc1=O [Example 354, 2-(4-(4-(2-(2-Aminopyridin-3-yl)-5-(1-methyl-6-oxo-1,6-dihydropyridin-3-yl)-3H-imidazo[4,5-b]pyridin-3-yl)benzyl)piperazin-1-yl)pyrimidine-4-carbonitrile] | 60 to 600
Cn1cc(-c2ccc3nc(-c4cccnc4N)n(-c4ccc(CN5CCC(Nc6ccnc(C#N)n6)CC5)cc4)c3n2)ccc1=O [Example 355, 4-((1-(4-(2-(2-Aminopyridin-3-yl)-5-(1-methyl-6-oxo-1,6-dihydropyridin-3-yl)-3H-imidazo[4,5-b]pyridin-3-yl)benzyl)piperidin-4-yl)amino)pyrimidine-2-carbonitrile] | 15 to 60
Cn1cc(-c2ccc3nc(-c4cccnc4N)n(-c4ccc(CN5CCC(Nc6nccc(C#N)n6)CC5)cc4)c3n2)ccc1=O [Example 356, 2-((1-(4-(2-(2-Aminopyridin-3-yl)-5-(1-methyl-6-oxo-1,6-dihydropyridin-3-yl)-3H-imidazo[4,5-b]pyridin-3-yl)benzyl)piperidin-4-yl)amino)pyrimidine-4-carbonitrile] | 60 to 600
N#Cc1nccc(NC2CCN(Cc3ccc(-n4c(-c5cccnc5N)nc5ccc(-c6cccc(F)c6)nc54)cc3)CC2)n1 [Example 357, 4-((1-(4-(2-(2-Aminopyridin-3-yl)-5-(3-fluorophenyl)-3H-imidazo[4,5-b]pyridin-3-yl)benzyl)piperidin-4-yl)amino)pyrimidine-2-carbonitrile] | 15 to 60
N#Cc1ccnc(NC2CCN(Cc3ccc(-n4c(-c5cccnc5N)nc5ccc(-c6cccc(F)c6)nc54)cc3)CC2)n1 [Example 358, 2-((1-(4-(2-(2-Aminopyridin-3-yl)-5-(3-fluorophenyl)-3H-imidazo[4,5-b]pyridin-3-yl)benzyl)piperidin-4-yl)amino)pyrimidine-4-carbonitrile] | 15 to 60
Cn1ccc(-c2ccc3nc(-c4cccnc4N)n(-c4ccc(CN5CCC(Nc6ccnc(C#N)n6)CC5)cc4)c3n2)cc1=O [Example 359, 4-((1-(4-(2-(2-aminopyridin-3-yl)-5-(1-methyl-2-oxo-1,2-dihydropyridin-4-yl)-3H-imidazo[4,5-b]pyridin-3-yl)benzyl)piperidin-4-yl)amino)pyrimidine-2-carbonitrile] | < 15
Cn1ccc(-c2ccc3nc(-c4cccnc4N)n(-c4ccc(CN5CCC(Nc6nccc(C#N)n6)CC5)cc4)c3n2)cc1=O [Example 360, 2-((1-(4-(2-(2-Aminopyridin-3-yl)-5-(1-methyl-2-oxo-1,2-dihydropyridin-4-yl)-3H-imidazo[4,5-b]pyridin-3-yl)benzyl)piperidin-4-yl)amino)pyrimidine-4-carbonitrile] | 60 to 600
N#Cc1nccc(N2CC3(CCN(Cc4ccc(-n5c(-c6cccnc6N)nc6ccc(-c7ccccc7)nc65)cc4)CC3)C2)n1 [Example 361, 4-(7-(4-(2-(2-Aminopyridin-3-yl)-5-phenyl-3H-imidazo[4,5-b]pyridin-3-yl)benzyl)-2,7-diazaspiro[3.5]nonan-2-yl)pyrimidine-2-carbonitrile] | < 15
N#Cc1nccc(NC2CC3(CCN(Cc4ccc(-n5c(-c6cccnc6N)nc6ccc(-c7ccccc7)nc65)cc4)CC3)C2)n1 [Example 362, 4-((7-(4-(2-(2-Aminopyridin-3-yl)-5-phenyl-3H-imidazo[4,5-b]pyridin-3-yl)benzyl)-7-azaspiro[3.5]nonan-2-yl)amino)pyrimidine-2-carbonitrile] | < 15
N#Cc1ncnc(N2CCC3(CCN(Cc4ccc(-n5c(-c6cccnc6N)nc6ccc(-c7ccccc7)nc65)cc4)CC3)C2)n1 [Example 363, 4-(8-(4-(2-(2-Aminopyridin-3-yl)-5-phenyl-3H-imidazo[4,5-b]pyridin-3-yl)benzyl)-2,8-diazaspiro[4.5]decan-2-yl)-1,3,5-triazine-2-carbonitrile] | 15 to 60
N#Cc1nccc(N2CCC3(CCN(Cc4ccc(-n5c(-c6cccnc6N)nc6ccc(-c7ccccc7)nc65)cc4)CC3)CC2)n1 [Example 364, 4-(9-(4-(2-(2-Aminopyridin-3-yl)-5-phenyl-3H-imidazo[4,5-b]pyridin-3-yl)benzyl)-3,9-diazaspiro[5.5]undecan-3-yl)pyrimidine-2-carbonitrile] | 15 to 60
N#Cc1ncnc(N2CCC3(CCN(Cc4ccc(-n5c(-c6cccnc6N)nc6ccc(-c7ccccc7)nc65)cc4)CC3)CC2)n1 [Example 365, 4-(9-(4-(2-(2-Aminopyridin-3-yl)-5-phenyl-3H-imidazo[4,5-b]pyridin-3-yl)benzyl)-3,9-diazaspiro[5.5]undecan-3-yl)-1,3,5-triazine-2-carbonitrile] | 15 to 60
